Data on eight molecules can be found in patent publication US8946478B2, “Benzamide derivative with anticancer activity and preparation method and use thereof” (Zhejiang Hisun Pharmaceutical Co., Ltd., priority 2010, dated 2015).

For experiment [1], the system named is human ovarian cancer cell strain SKOV-3. In words: In vitro SRB tumor cell growth inhibition (GI50). The format is cell-based. The note with it: SK-OV-3, SKOV-3 cells, 48 h. The protocol: (§1) Human colon cancer cell strains (Colo205 and HCT-116), human breast cancer cell strains (MCF-7 and MDA-MB435), human lung cancer cell strains (A549, 95D and NCI460), human ovarian cancer cell strains (OVCAR-5, OVCAR-8, HO8910 and SKOV-3), human leukemia (HL-60 and K562), human prostate cancer (DU145 and BXPC-3), human uterine cancer (Hela), human pancreatic cancer (PANC-1), human hepatoma (HepG 2) were all obtained from ATCC. Colo205, HL-60, K562 cells were cultured in RPMI 1640 containing 2 mM/L glutamine, 10% FBS, 1.0 mM sodium pyruvate. HCT-116, MCF-7, A549, 95D, HO8910, NCI460, OVCAR-5, OVCAR-8, DU145, BXPC-3, Hela, PANC-1, HepG2 cells were cultured in DMEM containing 2 mM/L glutamine, 10% FBS. MDA-MB435 cells were cultured in L-15 containing 2 mM/L glutamine, 10% FBS. SKOV-3 cells were cultured in McCoy's containing 2 mM/L glutamine, 10% FBS. Colo205, HL-60 and K562 cells were seeded in 96-well plates, 150 μL/well and 8000 cells/well, and the 96-well plates were pre-incubated in an incubator at 37° C. with 5% CO2, 100% relative humidity for 24 hours. HCT-116, MCF-7, NCI460, OVCAR-5, OVCAR-8, Hela, HepG 2 and MDA-MB435 cells were seeded in 96-well plates, 5000 cells/well; A549, 95D, HO8910, DU145, BXPC-3, PANC-1 and SKOV-3 cells were seeded in 96-well plates, 10000 cells/well, and the 96-well plates were pre-incubated in an incubator at 37° C. with 5% CO2, 100% relative humidity for 24 hours, to allow the cells to adhere.
(§2) 50 μL of pre-cooled 50% (mass/volume) TCA was added into the time zero control wells for each cell strain to fix the cells. To other wells, 50 μL of various concentrations of compounds were added, and maintained for 48 h, wherein each drug concentration was in triplicate, and there were blank control wells (cell culture medium without cells), drug-free control wells (with no drugs but the same volume of complete medium) and positive drug BSI-201 control wells, and the plates were incubated in an incubator at 37° C. with 5% CO2, full humidity (100% relative humidity) for 48 hours
(§3) 50 μL pre-cooled 50% (mass/volume) TCA was added onto the surface of the culture medium to fix the cells, which was then placed at 4° C. for 1 h. The supernatant was removed and each well was washed with deionized water for 5 times to remove TCA, serum proteins, etc. After dried in the air, about 100 μL enough amount of 0.4% SRB (formulated with 1% acetic acid) was added into each well, and was placed at room temperature for 20 to 30 min. Liquid in each well was discarded and each well was rapidly washed with 1% acetic acid for five times, to remove unbound dye until the unbound dye was completely rinsed clean. After dried in the air until the moisture was invisible, each well was added 200 μL Tris base to dissolve, shaken on a plate oscillator for 5 min or mixed by beating up and down with a pipette tip, and then measured on the multi-function instruction (M5 Detection System, MD Group Ltd.) with a detection wavelength of 515 nm, zero adjusted with 690 nm blank control.
(§4) The dose-response curve was plotted by XL-fit to determine the GI50 value.

Experiment [2] relates to human lung cancer cell strain NCI-460. As to the kind of experiment: In vitro SRB tumor cell growth inhibition (GI50). It is filed as cell-based. The note with it: NCI-460 cells. The protocol:
as §1, §2, §3, §4

The subject of experiment [3] is human ovarian cancer cell strain HO8910. As to the kind of experiment: In vitro SRB tumor cell growth inhibition (GI50). The note with it: HO-8910, HO8910 cells, 48 h. The format is cell-based. How it is done: as §1, §2, §3, §4
The test system of experiment [4] is human lung cancer cell strain A549. As to the kind of experiment: In vitro SRB tumor cell growth inhibition (GI50). It is filed as cell-based. To be noted: A549 cells, 48 h. The protocol:
as §1, §2, §3, §4

In experiment [5] the test system is human ovarian cancer cell strain OVCAR-8. In words: In vitro SRB tumor cell growth inhibition (GI50). It is filed as cell-based. The note with it: OVCAR-8 cells. How it is done:
as §1, §2, §3, §4

Experiment [6] has as its system human colon cancer cell strain Colo205. In words: In vitro SRB tumor cell growth inhibition (GI50). It is filed as cell-based. To be noted: Colo 205 cells, 48 h. The protocol: as §1, §2, §3, §4
Experiment [7] relates to human pancreatic cancer PANC-1. In words: In vitro SRB tumor cell growth inhibition (GI50). The format is cell-based. To be noted: PANC-1 cells. How it is done:
as §1, §2, §3, §4

Experiment [8] has as its system human lung cancer cell strain 95D. In words: In vitro SRB tumor cell growth inhibition (GI50). To be noted: 48 h, 95D cells. It is filed as cell-based. How it is done:
as §1, §2, §3, §4

For experiment [9], the system named is human breast cancer cell strain MCF-7. In words: In vitro SRB tumor cell growth inhibition (GI50). The format is cell-based. To be noted: MCF-7 cells. How it is done:
as §1, §2, §3, §4

For another experiment, the system named is human hepatoma HepG 2. In words: In vitro SRB tumor cell growth inhibition (GI50). It is filed as cell-based. To be noted: HepG2, HepG 2 cells, 48 h. The protocol: as §1, §2, §3, §4
The subject of experiment [10] is human breast cancer cell strain MDA-MB435. In words: In vitro SRB tumor cell growth inhibition (GI50). The format is cell-based. The note with it: MDA-MB435 cells. How it is done:
as §1, §2, §3, §4

The next experiment concerns human leukemia HL-60. In words: In vitro SRB tumor cell growth inhibition (GI50). The format is cell-based. The note with it: HL-60 cells. How it is done:
as §1, §2, §3, §4

Experiment [11] concerns human uterine cancer Hela. In words: In vitro SRB tumor cell growth inhibition (GI50). It is filed as cell-based. The note with it: 48 h, Hela cells. The protocol: as §1, §2, §3, §4
Experiment [12] has as its system human prostate cancer BXPC-3. In words: In vitro SRB tumor cell growth inhibition (GI50). It is filed as cell-based. To be noted: BXPC-3 cells, 48 h. How it is done:
as §1, §2, §3, §4

A further experiment deals with human leukemia K562. As to the kind of experiment: In vitro SRB tumor cell growth inhibition (GI50). It is filed as cell-based. The note with it: K562 cells. The protocol:
as §1, §2, §3, §4

Experiment [13] concerns human prostate cancer DU145. In words: In vitro SRB tumor cell growth inhibition (GI50). The format is cell-based. The note with it: DU145 cells. How it is done: as §1, §2, §3, §4
Experiment [14] concerns human colon cancer cell strain HCT-116. As to the kind of experiment: In vitro SRB tumor cell growth inhibition (GI50). The format is cell-based. The note with it: HCT-116 cells. The protocol:
as §1, §2, §3, §4

In a further experiment the test system is 18 tumor cell strains. As to the kind of experiment: In vitro efficacy screening, summary over the tumor cell strains. It is filed as cell-based, human. The note with it: in vitro screening; for inhibitory effects on tumor cell proliferation (in words): BSI-201 as positive drug. The protocol:
as §1, §2, §3, §4

The GI50 is the concentration giving 50% growth inhibition. Low values mean more potent growth inhibition, high ones less potent growth inhibition. For `C#Cc1ccc(C(=O)NC(=O)OCC)cc1[N+](=O)[O-]` [Compound I-3, N-ethoxycarbonyl-4-ethynyl-3-nitrobenzamide], the GI50 in [1] turned out to be 15 µM; in [2] (Homo sapiens, NCI-460, 48 h), 37.3 µM; in experiment [3], 4.03 µM; in [4] it was 25 µM; in experiment [5] (Homo sapiens, OVCAR-8, 48 h), 16.3 µM; in experiment [6] it was 4.32 µM. For the same molecule, the GI50 was 2.48 µM in [7] (Homo sapiens, PANC-1, 48 h); 4.38 µM in experiment [8] (Homo sapiens, 95-D); 6.81 µM in experiment [9] (Homo sapiens, MCF7, 48 h); 12 µM in the experiment on human hepatoma HepG 2; 4.16 µM in experiment [10] (Homo sapiens, MDA-MB-435, 48 h); 3.2 µM in the experiment with human leukemia HL-60 (Homo sapiens, HL-60, 48 h). Besides, the concentration for 50% growth inhibition (GI50) in [11] (Homo sapiens, HeLa) stood at 9.9 µM; in [12] it was 7.5 µM; in the experiment with human leukemia K562 (Homo sapiens, K562, 48 h) it was 7.03 µM; in experiment [13] (Homo sapiens, DU-145, 48 h) it was 3.79 µM; in experiment [14] (Homo sapiens, HCT-116, 48 h), 5.6 µM. Further, the “efficacy in inhibition of tumor cell proliferation, graded in words against I-1” value (“efficacy in inhibition” for short) in the experiment with 18 tumor cell strains is “slightly lower than that of I-1”. For the same molecule, the “inhibitory effects on tumor cell proliferation (in words)” value (“inhibitory effects” for short) in the experiment on 18 tumor cell strains is reported as “have inhibitory effects on tumor cell proliferation”.
With `C#Cc1ccc(C(=O)NC(=O)OC(C)C)cc1[N+](=O)[O-]` [Compound I-6, N-isopropoxycarbonyl-4-ethynyl-3-nitrobenzamide], in experiment [6], the GI50 is 9.09 µM. The molecule also came in with a GI50 with human leukemia K562 (Homo sapiens, K562, 48 h) of 20.2 µM. In the experiment with 18 tumor cell strains, the “efficacy in inhibition” value is listed as “good effects on inhibition of tumor cell proliferation” and the “inhibitory effects” value was “have inhibitory effects on tumor cell proliferation”.
Consider `C#Cc1ccc(C(=O)NC(=O)OCC(C)C)cc1[N+](=O)[O-]` [Compound I-7, N-isobutoxycarbonyl-4-ethynyl-3-nitrobenzamide], for which the GI50 in experiment [6] was found to be 3.15 µM; in experiment [10] (Homo sapiens, MDA-MB-435, 48 h), 9.67 µM; in the experiment on human leukemia K562 (Homo sapiens, K562, 48 h), 10.1 µM. In addition, in the experiment on 18 tumor cell strains, the “efficacy in inhibition” value is recorded as “good effects on inhibition of tumor cell proliferation”. Moreover, the “inhibitory effects” value with 18 tumor cell strains was “have inhibitory effects on tumor cell proliferation”.
In the case of `C#Cc1ccc(C(=O)N(CCC)CCC)cc1[N+](=O)[O-]` [Compound I-15, N,N-dipropyl-4-ethynyl-3-nitrobenzamide], the GI50 in experiment [2] (Homo sapiens, NCI-460, 48 h) amounted to 17 µM; in experiment [9] (Homo sapiens, MCF7, 48 h), 9.92 µM; in [13] (Homo sapiens, DU-145, 48 h), 2.37 µM; in experiment [14] (Homo sapiens, HCT-116, 48 h), 12 µM. Also, the “efficacy in inhibition” value in the experiment with 18 tumor cell strains is “slightly lower than that of I-1”. Moreover, in the experiment on 18 tumor cell strains, the “inhibitory effects” value was “have inhibitory effects on tumor cell proliferation”.
For `C#Cc1ccc(C(=O)N2CCNCC2)cc1[N+](=O)[O-]` [Compound I-23, (4-ethynyl-3-nitrophenyl)(piperazin-1-yl)ketone], the GI50 in [1] was 31.3 µM; in [2] (48 h), 25.6 µM; in [4] it was 56.8 µM; in experiment [7] (48 h), 23.8 µM; in [8] it was 10.9 µM; in [9] (48 h), 9.24 µM. The GI50 turned out to be 12.3 µM in the experiment on human leukemia HL-60 (48 h); 11.2 µM in [11]; 16.2 µM in the experiment with human leukemia K562 (48 h); 3.44 µM in experiment [13] (48 h); 12.4 µM in experiment [14] (48 h). Moreover, the “efficacy in inhibition” value with 18 tumor cell strains is “slightly lower than that of I-1”. The “inhibitory effects” value in the experiment on 18 tumor cell strains was “have inhibitory effects on tumor cell proliferation”.
For the molecule `CC#Cc1ccc(C(=O)NC)cc1[N+](=O)[O-]` [Compound I-26, N-methyl-4-(1-propynyl)-3-nitrobenzamide], the figures for the GI50 in [1] and in experiment [4] were 105 µM and 130 µM, respectively. Further, in the experiment with 18 tumor cell strains, the “inhibitory effects” value was “have inhibitory effects on tumor cell proliferation”.
As for `C#Cc1ccc(C(=O)N2CCN(C)CC2)cc1[N+](=O)[O-].Cl` [Compound I-29, (4-ethynyl-3-nitrophenyl)(4-methylpiperazin-1-yl)ketone hydrochloride], the GI50 in experiment [2] (48 h, hydrochloride) is 28.2 µM; in [5] (48 h, hydrochloride), 29.3 µM; in experiment [8] (hydrochloride), 15.8 µM; in [9] (48 h, hydrochloride) it was 11.8 µM; in experiment [10] (48 h, hydrochloride) it was 8.44 µM; in experiment [14] (48 h, hydrochloride), 14.3 µM. Also, in the experiment on 18 tumor cell strains, the “efficacy in inhibition” value is “slightly lower than that of I-1”. Besides, the “inhibitory effects” value with 18 tumor cell strains is reported as “have inhibitory effects on tumor cell proliferation”.
For `C#Cc1ccc(C(=O)N2CCNCC2)cc1[N+](=O)[O-].Cl` [Compound I-30, (4-ethynyl-3-nitrophenyl)(piperazin-1-yl)ketone hydrochloride], the concentration for 50% growth inhibition (GI50) in experiment [2] (Homo sapiens, NCI-460, 48 h) is 19.5 µM; in experiment [5] (Homo sapiens, OVCAR-8, 48 h), 10.3 µM; in experiment [7] (Homo sapiens, PANC-1, 48 h), 18.1 µM; in [8] (Homo sapiens, 95-D) it was 10.9 µM; in [9] (Homo sapiens, MCF7, 48 h) it was 5.97 µM; in experiment [10] (Homo sapiens, MDA-MB-435, 48 h) it was 3.06 µM. Further, the GI50 amounted to 9.27 µM in the experiment on human leukemia HL-60 (Homo sapiens, HL-60, 48 h); 14 µM in experiment [11] (Homo sapiens, HeLa); 15.3 µM with human leukemia K562 (Homo sapiens, K562, 48 h); 5.84 µM in [13] (Homo sapiens, DU-145, 48 h); 10.3 µM in [14] (Homo sapiens, HCT-116, 48 h). The “efficacy in inhibition” value with 18 tumor cell strains is recorded as “slightly lower than that of I-1”. Moreover, the “inhibitory effects” value in the experiment on 18 tumor cell strains was “have inhibitory effects on tumor cell proliferation”.
